Test results from ChEMBL document CHEMBL1201862, “PubChem BioAssay data set” (2004).
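Cultured in 96-well plates, cells were exposed to test compound for 48 hours across five concentrations. Abbreviation: GI50, concentration required for 50% inhibition of growth.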 The source made the active and inactive calls. No stated cut-off is given here; in the data, active = GI50 up to about 1.1 µM and inactive = higher.

What was measured:
Test in all cases: DTP human tumour cell line panel, 48 h
786-0 = system: 786-0
A498 = system: A498
ACHN = system: ACHN
COLO 205 = system: COLO 205
EKVX = system: EKVX
HL-60 = system: HL-60
HOP-62 = system: HOP-62
K562 = system: K562
KM12 = system: KM12
M14 = system: M14
MDA-MB-231 = system: MDA-MB-231
MDA-MB-435 = system: MDA-MB-435
MDA-N = system: MDA-N
Malme-3M = system: Malme-3M
NCI-H23 = system: NCI-H23
OVCAR-4 = system: OVCAR-4
RXF 393 = system: RXF 393
SK-MEL-2 = system: SK-MEL-2
UACC-257 = system: UACC-257
UACC-62 = system: UACC-62

Measured: GI50

COc1ccc(/C=C/C(=O)c2cccc(C(=O)/C=C/c3ccc(OC)c(OC)c3)n2)cc1OC
inactive: 786-0 11.9 µM | A498 > 91.2 µM | ACHN 25.8 µM | COLO 205 > 68.2 µM | EKVX > 95.9 µM | HL-60 1.15 µM | HOP-62 > 89.7 µM | K562 3.69 µM | KM12 > 55.6 µM | M14 32.7 µM | MDA-MB-231 25.4 µM | MDA-MB-435 > 50.9 µM | MDA-N 15.7 µM | Malme-3M 24.5 µM | NCI-H23 29.2 µM | OVCAR-4 > 100 µM | RXF 393 40.4 µM | SK-MEL-2 > 100 µM | UACC-257 39.6 µM | UACC-62 21.7 µM
